Non-standard residues stand in square brackets, D forms with d. Residues, ends and D or L forms follow the SMILES beside them. *: point of attachment. X1 = Cc1c(CC(=O)*)c(=O)oc2c(F)c(OCCCN)c(F)cc12; X2 = Cc1c(CC(=O)*)c(=O)oc2c(F)c(O)c(F)cc12; dCha = N[C@H](CC1CCCCC1)C(=O)O; Ahx = NCCCCCC(=O)O

The values below come from patent publication US12692532B2, “Compounds and methods for amine oxidase imaging” (ETH ZURICH, priority 2019, dated 2026).

Data set [1] deals with MAO A/MAO B in MCF-7 cells. Kind of data set: Confocal microscopy of MCF-7 cells treated with MAO probes. Also noted: blue channel (405 nm) fluorescence of the probe / colocalization with MitoTracker Red (405 nm and 561 nm overlay): dose or concentration left out as unconfirmed. Format: cell-based. Here is the method: Cell culture: MCF-7 and SY5Y cells were obtained from the Health Protection Agency (www.HPA.org.uk) or the American Type Culture Collection. […] Culture medium DMEM high glucose, F-12KTM, L-glutamine (200 mM), penicillin (10.000 U/mL), streptomycin (10 mg/mL), and trypan blue solution were purchased from Sigma, Invitrogen, ATCC or BioConcept. Trypsin-EDTA (0.05%/0.02%) in Ca2+- and Mg2+-deficient phosphate buffered saline (PBS) (1:250) was purchased from Amimed. PBS (pH 7.4) was purchased from Invitrogen. […] Cell culture flasks as well as serological pipettes were purchased from BD Biosciences and Sarstedt. Ethylenediaminetetraacetic acid (EDTA) was purchased from Sigma-Aldrich. Hoechst 33342 was purchased from Invitrogen. MitoTracker Red mitochondrial staining dye and live cell imaging solution were purchased from ThermoFisher.
Confocal Microscopy: Fluorescence images of cells were collected using a Nikon Eclipse T1 microscope equipped with a Yokogawa spinning-disk confocal scanner unit CSU-W1-T2, two sCMOS cameras (Orca Flash 4.0 V2) and a LUDL BioPrecision2 stage with piezo focus. Emission in the blue channel was filtered with a 450/50 bandpass filter, emission in the green channel was filtered with a 525/50 bandpass filter and emission in the far-red channel with a 700/75 bandpass filter. Fluorescence images were obtained using an oil-immersion objective with a magnification of 100×1.49 CFI Apo TIRF. The microscope was operated using VisiVIEW (Metamorph).
Prior to the measurement, cells were seeded at a density of 10′000 cells/well in ibidi 8-well plates and were grown for 1 day in DMEM (10% FCS) at 37° C. Afterwards cells were washed with PBS and fresh DMEM was added. Compounds were added to the cells as stock solutions in PBS to reach the final […] concentration. […] Cells were washed with PBS and the live cell imaging solution (200 μL) was added. The live cells were then immediately examined on a confocal microscope (Vistron Spinning Disk). For detection of the coumarin-activation a laser line 405 nm and for MitoTracker a laser line of 561 nm was used.

Data set [2] can be described thus: Absorption and emission spectroscopy, quantum yield. The following applies: excitation wavelength used for the emission scans of FIG. 2. The format is physicochemical.
Experimental: Absorption and emission spectroscopy. UV-visible spectra were obtained with a Cary-500 Scan spectrophotometer. The spectra were measured in quartz cuvettes (ThorLabs, CV10Q3500, Newton, NJ USA). Samples were irradiated with an LED transilluminator (Roithner Lasertechnik, LED405-06V, Vienna, Austria) emitting at a wavelength as stated with an incident intensity of ca. 2 mW cm^−2, measured with a power-meter (ThorLabs, PM100D, Newton, NJ USA) equipped with a Si photodiode detector (ThorLabs, S120VC, Newton, NJ USA). Fluorescence spectroscopy was measured in a Fluorolog 3 fluorimeter (Horiba Jobin-Yvon, Germany) fluorimeter with a cuvette sample changer for quartz cuvettes (ThorLabs, CV10Q3500F-E, Newton, NJ USA). All measurements were conducted at 25° C. in 50 mM PBS pH 7.4 buffer solution under red light for ambient illumination to avoid photoactivation.
Data set [3] concerns LOX activity in mouse tissue homogenate. As to the kind of experiment: Ex vivo fluorescence assay of amine oxidase (LOX) activity in mouse tissue homogenate. The format is biochemical. The following applies: for fluorescent signal (RFU) with skin homogenate, comparison with oLOX probe: 10 μM, 24 h at 37° C., each at its absorbance and emission maximum. Here is the method:
(§1) Fluorescence experiments for determining amine oxidase activity of a given enzyme are conducted using a fluorescence plate reader and a standard 96-well black polystyrene plate with a clear flat bottom. To the plate 150 μL of the following solutions are added to individual wells, e.g. with at least three replicates: buffer (e.g. 25 mM at pH 7.5), a solution in buffer of the amine-oxidase reactive probe, e.g. Compound 2, (e.g. at 100 μM), a buffered solution of the sample containing an amine-oxidase at the desired concentration(s) (e.g. 40 μg/mL), and a buffered solution of the sample containing amine-oxidases with addition of the probe, e.g. Compound 2, (e.g. at 100 μM). The plate is incubated in the dark at 37° C. for a period of time between 15 min and 24 hours before measurements are taken. Fluorescence is measured by exciting the unmasked probe at the absorbance maximum (e.g. 360 nm) or at 405 nm, and measuring the fluorescence at the emission maximum of the probe, for example at 460 nm. Enzyme activity is observed as fluorescence measured relative to the untreated controls, for example as expressed in relative fluorescent units (RFUs). […] Any change, optionally any statistically relevant change, in fluorescence relative to the untreated controls is indicative of amine oxidase activity.
Skin tissue used for enzymatic analysis of LOX activity was harvested (1 cm×1 cm) and placed in 2 ml of ice-cold PBS. Skin tissue was homogenized using an Ultra-TURRAX homogenizer (KA®-Werke GmbH & CO. KG, Staufen, Germany) and samples were spun at 2000×g to pellet out tissue debris. The supernatant was further purified using a 0.2 μm filter. Tissue homogenates were then evaluated with regard to total in solution protein retrieval using a nanospec absorbance measurement standardized to BSA at 1 mg/mL (Pierce™, Thermo Fisher Scientific Inc, Waltham, USA). Homogenates were diluted to appropriate concentrations (e.g. 1 mg/ml total protein) with 25 mM PIPES, 0.5% Triton X-100 (Sigma Aldrich, St Louis, […], USA) and pre-incubated with the probe (10 μM or 100 μM) at 37° C. in the dark for the designated period of time prior to fluorescence measurements. The resultant fluorescence was then measured using a Tecan Spark 10M Multi-Mode Microplate Reader (Tecan, Männedorf, Switzerland) at ambient temperature with a filter for excitation/emission (e.g. 405/460 nm respectively) as defined for the experiment. Activity is observed as fluorescence measured, and is expressed in relative fluorescent units (RFUs). Graphical presentation and statistical analysis were carried out using Graphpad Prism 7 software, (GraphPad Software, Inc., San Diego, USA.) with statistical significance determined as p<0.05.

In data set [4] the target is T1, recombinant human monoamine oxidase B (MAO-B) (Homo sapiens, UniProt P27338).
T1 sequence (P27338 1-520): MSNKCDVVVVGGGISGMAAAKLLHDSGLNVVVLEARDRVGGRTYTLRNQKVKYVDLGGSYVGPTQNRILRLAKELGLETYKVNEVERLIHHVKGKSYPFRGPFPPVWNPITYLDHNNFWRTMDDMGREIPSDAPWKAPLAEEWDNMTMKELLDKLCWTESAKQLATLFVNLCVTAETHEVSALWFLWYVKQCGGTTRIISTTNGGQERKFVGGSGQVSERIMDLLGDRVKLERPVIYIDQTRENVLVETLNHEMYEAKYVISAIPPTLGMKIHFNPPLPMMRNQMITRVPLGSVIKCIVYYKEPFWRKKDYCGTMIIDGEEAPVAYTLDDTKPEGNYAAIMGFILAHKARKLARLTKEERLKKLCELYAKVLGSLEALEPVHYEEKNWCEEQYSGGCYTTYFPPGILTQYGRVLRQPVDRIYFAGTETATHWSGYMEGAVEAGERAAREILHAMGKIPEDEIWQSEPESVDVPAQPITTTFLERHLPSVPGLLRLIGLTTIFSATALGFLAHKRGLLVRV
Kind of data set: Fluorescence assay with recombinant monoamine oxidase B. The format is biochemical. The following applies: 100 μM, 2 h at 37° C., Ex/Em 405/460 nm. How it is done:
as §1

Data set [5] has as its system amine-oxidase (LOX) in skin wound. Kind of data set: In vivo intradermal administration to mice, histological analysis of skin wound. The following applies: for fluorescence in cross section of wound after in vivo administration: 100 μM, 50 μL intradermally, skin harvested after five days. Here is the method: Animals: Mice were housed and fed according to Swiss guidelines and all animal experiments were approved by the local veterinary authorities (Kantonales Veterinäramt Zürich). All mice used for these experiments are on a C57BL/6 background. Administration of Compounds 3, 4 and 5 into skin: Peptide solutions at 100 μM were brought to room temperature for 30 min. Male or female mice at 8 weeks of age were anesthetized by intraperitoneal injection of ketamine/xylazine (100 mg ketamine/5-10 mg xylazine per kg body weight), skin shaved and an injection of 50 μL was made intradermally into the back skin. Mice were housed for an additional five days and then skin harvested for histological analysis.
Skin tissue used for histology was harvested and immediately embedded and frozen in tissue freezing Medium® (Leica Biosystems, Wetzlar, Germany). Tissue sections (7 μM) were fixed using ice-cold acetone for 10 min at −20° C. and stained with propidium iodide to visualize nuclei. Images were taken using a 20× objective. For immunofluorescent analysis of collagen, antibodies against collagen I (Southern Biotech, Birmingham, AL, USA; 1310-01) or collagen III (Abcam, Cambridge, UK, ab7778) were used. Fixed tissue sections were incubated with 1% bovine serum albumin (BSA) in PBS for 30 min followed by collagen I (1:400 dilution in 1% BSA) or collagen III (1:800 dilution in 1% BSA) antibodies for 60 min at room temperature. After washing (3×5 min PBS), secondary antibodies (anti-rabbit AF488 (711-547-003) or anti-goat AF488 (705-545-147), Jackson ImmunoResearch) were incubated on the tissues for 30 min at room temperature (both at 1:400 dilution in 1% BSA) and nuclei visualized using propidium iodide. All images were taken using a 20× objective.

The next data set has as its system SSC13 ear tumor. As to the kind of experiment: Staining of SSC13 ear tumor tissue sections. As to conditions: 100 μM in PBS, 4 hours at 37° C. How it is done: Skin tissue used for histology was harvested and immediately embedded and frozen in tissue freezing Medium® (Leica Biosystems, Wetzlar, Germany). Tissue sections (7 uM) were treated by the addition of 50 μL of each compound at 100 μM in PBS (Compounds 3, 4, 5, or 6) by pipette to completely cover the surface of the section, incubated at 37° C. for 4 hours in the dark, and washed 2× with PBS. Sections were fixed using ice-cold acetone for 10 min at −20° C. and stained with propidium iodide to visualize nuclei. Images were taken using a 20× objective.
For immunofluorescent analysis of collagen, antibodies against collagen I (Southern Biotech, 1310-01) or collagen III (Abcam, ab7778) were used. Fixed tissue sections were incubated with collagen I or collagen III antibodies for 60 min at room temperature. After washing, secondary antibodies (anti-rabbit AF488 (711-547-003) or anti-goat AF488 (705-545-147), Jackson ImmunoResearch) were incubated on the tissues for 30 min at room temperature and nuclei visualized using propidium iodide. All images were taken using a 20× objective.

The mark [6] stands for this setting: 1 h pretreatment with Selegiline, then 10 mM probe 1 h.

As for `Cc1c(CC(=O)NCCCCCC(=O)N[C@H](CC2CCCCC2)C(=O)N[C@H](CCCNC(=N)N)C(=O)N[C@H](CC2CCCCC2)C(=O)N[C@H](CCCNC(=N)N)C(=O)N[C@H](CC2CCCCC2)C(=O)N[C@H](CCCNC(=N)N)C(N)=O)c(=O)oc2c(F)c(O)c(F)cc12` [PB peptide, PB-Ahx-(ChaR)3—NH2, reference compound] ({X2-Ahx}-[dCha][dR][dCha][dR][dCha][dR]-NH2), in data set [1] (1 h), the “blue channel (405 nm) fluorescence of the probe” value was “fluorescence of the probe”; the “colocalization with MitoTracker Red (405 nm and 561 nm overlay)” value is given as “lack colocalization”.

As for `Cc1c(CC(=O)NCCCCCC(=O)N[C@H](CC2CCCCC2)C(=O)N[C@H](CCCNC(=N)N)C(=O)N[C@H](CC2CCCCC2)C(=O)N[C@H](CCCNC(=N)N)C(=O)N[C@H](CC2CCCCC2)C(=O)N[C@H](CCCNC(=N)N)C(N)=O)c(=O)oc2c(F)c(OCCCN)c(F)cc12` [peptide MAO probe, 1-Ahx-[Char]3—NH2] ({X1-Ahx}-[dCha][dR][dCha][dR][dCha][dR]-NH2), in data set [1] (setting [6]), the “blue channel (405 nm) fluorescence of the probe after MAO-B inhibitor” value is “very little fluorescence” and the “colocalization with MitoTracker Red after MAO-B inhibitor” value is “only poor colocalization”.

Regarding “3-carboxy-6,8-difluoro-7-(4-((tert-butoxycarbonyl)amino)propoxy)-coumarin [Compound 2]”, the absorbance maximum in data set [2] is 313 nm. In addition, the “fluorescent signal (RFU) with skin homogenate, comparison with oLOX probe” value in data set [3] is recorded as “significant increase in fluorescent signal”. Moreover, the “fluorescent signal (RFU) with heat-denatured skin homogenate” value in data set [3] (100 μM, 1 h at 37° C., homogenate denatured 1.5 h at 90° C., Ex/Em 405/460 nm) is “significant decrease in fluorescent signal”. Also, the “fluorescent signal (RFU) with BAPN-inhibited skin homogenate” value in data set [3] (100 μM, 1 h at 37° C., homogenate pretreated with 100 μM BAPN for 2 h, Ex/Em 405/460 nm) is given as “significant decrease in fluorescent signal”. In data set [3] (100 μM, 18 h at 37° C., Ex/Em 405/460 nm), the “fluorescent signal (RFU) with lung, skin and liver homogenates” value was “most significant increase in fluorescent signal was obtained for skin tissue type”. Also, the “fluorescent signal (RFU) with MAO-B compared to controls” value in data set [4] was “significant increase in fluorescent signal”.

Turning to 1-Ahx-[ProProGly]7—NH2 [Compound 5], the “fluorescence in cross section of wound after in vivo administration” value (shortened to “fluorescence in cross section of wound”) in data set [5] is recorded as “fluorescence can be clearly visualized at the locations where the peptide-bound probe has been unmasked”.

For the molecule `Cl.Cl.NCCCOc1ccc2c(c1)Oc1cc(OCCCN)ccc1C21OC(=O)c2ccccc21` [oLOX, 3′,6′-Bis(3-aminopropoxy)-3H-spiro[2-benzofuran-1,9′-xanthen]-3-one dihydrochloride, reference compound], the “fluorescent signal (RFU) with skin homogenate, comparison with oLOX probe” value in data set [3] is recorded as “ns”.

Consider “1-[ProHypGly]3-AopProGly-[ProHypGly]3—NH2 [Compound 3]”, for which the “blue fluorescence of the probe in tumor section” value in the data set with SSC13 ear tumor was “seen around the periphery of the tumor but is strongest near the side of attachment to the cartilage”. Further, in data set [5], the “fluorescence in cross section of wound” value was “fluorescence can be clearly visualized at the locations where the peptide-bound probe has been unmasked”. In addition, the “localization of the probe in the wound” value in data set [5] (FIG. 31 (a) center) was “localizes the probe to collagen and elastin at the sites of LOX-mediated crosslinking”.

For the molecule “3-carboxy-6,8-difluoro-7-(4-((tert-butoxycarbonyl)amino)propoxy)-coumarin [Compound 1]”, the “HPLC-MS trace of enzymatic conversion” value in data set [3] (after 18 h incubation, UV detection at 254 nm) is “enzymatic conversion of Compound 1 to PB”.

Turning to 1-Ahx-[ProHypGly]7—NH2 [Compound 4], the “fluorescence in cross section of wound” value in data set [5] is “fluorescence can be clearly visualized at the locations where the peptide-bound probe has been unmasked”.
